{"source": "patent US20110257146A1", "about": "“Method of Treating Kcnq Related Disorders Using Organozinc Compounds” (The johns Hopkins University, priority 2006, published 2011)", "key": {"[1]": {"system": "lymphocytic leukemia cells", "conditions": "micromolar concentrations; cited from earlier work"}, "[2]": {"molecular_target": "T1, human ether-a-go-go related gene (hERG) (Homo sapiens, UniProt Q12809)", "T1 construct": "expressed in transfected cells", "assay_type": "cell-based", "protocol": "(§1) Cell culture and transient transfection—Chinese Hamster Ovary (CHO) cells were grown in 50/50 DMEM/F12 (Cellgro) with 10% FBS (Gibco), 100 U/ml penicillin (Cellgro), 100 μg/ml streptomycin (Cellgro) and 2 mM L-glutamine (Gibco). At 24 hours before transfection, cells were split and plated in 60 mm dishes and were transfected with Lipofectamine2000™ reagent (Invitrogen) according to the manufacturer's instruction. At 24 hours after transfection, cells were split and re-plated onto coverslips coated with poly-L-lysine (Sigma). Plasmid expressing CD4 cDNA as a marker was cotransfected with the channel cDNAs of hKCNQ1 (from Dr. Michael Sanguinetti), hKCNQ4 (from Dr. Vitya Vardanyan), rKCNQ2, rKCNQ3, and hKCNQ5 (from Drs. David McKinnon, Mark Shapiro, and Thomas Jentsch). Prior to recording, anti-CD4 Dynabeads (Dynal. Biotech. Inc.) were added into the medium to allow for identification of the transfected cells. Stable lines expressing Kv2.1, hERG, and Kv4.2 were generated by standard protocols using pcDNA3.1 and maintained at complete medium supplemented with 500 μg/ml G418. […]\n(§2) Electrophysiological Recording—Standard whole-cell recording was used. […] Current and voltage were recorded using an Axopatch-200A amplifier, filtered at 1 kHz and digitized using a DigiData 1322A with pClamp 9.2 software (Axon Instruments, Foster City, Calif.). […]"}, "[3]": {"molecular_target": "T2, KCNQ2/3 heteromultimers (Rattus norvegicus, UniProt O88943+O88944)", "T2 construct": "expressed in transfected cells", "assay": "Whole-cell voltage clamp of CHO cells expressing KCNQ2/3 heteromultimers", "assay_type": "cell-based", "protocol": "(§3) Cell culture and transient transfection—Chinese Hamster Ovary (CHO) cells were grown in 50/50 DMEM/F12 (Cellgro) with 10% FBS (Gibco), 100 U/ml penicillin (Cellgro), 100 μg/ml streptomycin (Cellgro) and 2 mM L-glutamine (Gibco). At 24 hours before transfection, cells were split and plated in 60 mm dishes and were transfected with Lipofectamine2000™ reagent (Invitrogen) according to the manufacturer's instruction. At 24 hours after transfection, cells were split and re-plated onto coverslips coated with poly-L-lysine (Sigma). Plasmid expressing CD4 cDNA as a marker was cotransfected with the channel cDNAs of hKCNQ1 (from Dr. Michael Sanguinetti), hKCNQ4 (from Dr. Vitya Vardanyan), rKCNQ2, rKCNQ3, and hKCNQ5 (from Drs. David McKinnon, Mark Shapiro, and Thomas Jentsch). Prior to recording, anti-CD4 Dynabeads (Dynal. Biotech. Inc.) were added into the medium to allow for identification of the transfected cells. Stable lines expressing Kv2.1, hERG, and Kv4.2 were generated by standard protocols using pcDNA3.1 and maintained at complete medium supplemented with 500 μg/ml G418. The N-type calcium channel stable line was a kind gift from Drs. Diane Lipscombe and David Yue.\n(§4) Electrophysiological Recording—Standard whole-cell recording was used. Pipettes were pulled from borosilicate glass capillaries (TW150-4, World Precision Instruments, Sarasota, Fla.). When filled with the intracellular solution, the pipettes have resistances of […]. During the recording, constant perfusion of extracellular solution was maintained using a BPS perfusion system (ALA, Westbury, N.Y.). Pipette solution contained (mM): KCl 145, MgCl2 1, EGTA 5, HEPES 10, MgATP 5 (pH 7.3); extracellular solution contained (mM): NaCl 140, KCl 3, CaCl2 2, MgCl2 1.5, HEPES 10, glucose 10 (pH 7.4). Current and voltage were recorded using an Axopatch-200A amplifier, filtered at 1 kHz and digitized using a DigiData 1322A with pClamp 9.2 software (Axon Instruments, Foster City, Calif.). Series resistance compensation was also used and set to 60-80%.\n(§5) Data and Statistical Analysis—Patch-clamp data were preprocessed using Clampfit 9.2 (Axon Instruments, Foster City, Calif.) and then analyzed in Origin 7 (OriginLab, Northampton, Mass.). The activation curve was fitted by the Boltzmann equation: G=(Gmax−Gmin)/[1+exp[(V−V1/2)/S]]+Gmin, where Gmax is the maximum conductance, Gmin is the minimum conductance, V1/2 is the voltage for half of the total numbers of channels to open, and S is the slope factor. The dose response curve was fitted by the Hill equation: E=Emax/(1+(EC50/C)^P), where Emax is the maximum response, C is the drug concentration, EC50 is the drug concentration producing half of the maximum response, and P is the Hill coefficient. The deactivation trace was fitted by the standard exponential equation: I(t)=ΣIi*exp(−t/τi), where I is the current, t is the time and τ is the time constant. Data are presented as means±SE. Significance was estimated using paired two-tailed Student's t-test."}, "[4]": {"system": "M-current", "assay": "Native M-current in isolated dorsal root ganglion neurons", "assay_type": "cell-based, rat", "conditions": "10 μM ZnPy", "protocol": "FIG. 10. ZnPy potentiation of native M-current. A. M current recorded from an isolated rat dorsal root ganglion neuron, Vh was −60 mV, stepped to −20 mV, followed by a step to −50 mV, and stepped back to −20 mV. B. Histograms show M-current amplitudes in the presence and absence of 10 μM ZnPy (n=10, * p<0.001). M-current amplitudes were measured by fitting the IM relaxation with an exponential equation. The recording bath solution includes 1 μM TTX, 0.2 mM TEA, 1 mM 4-AP, 50 μM CNQX, and 10 μM bicuculline. C. Membrane potential of an isolated hippocampal neuron was monitored when 10 μM ZnPy was applied in bath solution followed by the addition of 15 μM linopirdine. D. Action potentials elicited by 200 pA current injection to a patched hippocampal neuron. The ZnPy treatments are as indicated.\nNeuron Culture—Dorsal root ganglia (DRG) was collected from fourteen-day-old CD rat and incubated in collagenase (sigma, 500 U/ml, 15 min) and then trypsin (Sigma, 1 mg/ml, 30 min) at 37° C. Single DRG neurons were isolated by mechanical trituration with a fire-polished glass Pasteur pipette. […]\nas §2"}, "[5]": {"molecular_target": "T3, N-type calcium channel (Homo sapiens, UniProt Q00975)", "T3 construct": "expressed in transfected cells; Diane Lipscombe and David Yue", "T3 sequence (Q00975 whole entry)": "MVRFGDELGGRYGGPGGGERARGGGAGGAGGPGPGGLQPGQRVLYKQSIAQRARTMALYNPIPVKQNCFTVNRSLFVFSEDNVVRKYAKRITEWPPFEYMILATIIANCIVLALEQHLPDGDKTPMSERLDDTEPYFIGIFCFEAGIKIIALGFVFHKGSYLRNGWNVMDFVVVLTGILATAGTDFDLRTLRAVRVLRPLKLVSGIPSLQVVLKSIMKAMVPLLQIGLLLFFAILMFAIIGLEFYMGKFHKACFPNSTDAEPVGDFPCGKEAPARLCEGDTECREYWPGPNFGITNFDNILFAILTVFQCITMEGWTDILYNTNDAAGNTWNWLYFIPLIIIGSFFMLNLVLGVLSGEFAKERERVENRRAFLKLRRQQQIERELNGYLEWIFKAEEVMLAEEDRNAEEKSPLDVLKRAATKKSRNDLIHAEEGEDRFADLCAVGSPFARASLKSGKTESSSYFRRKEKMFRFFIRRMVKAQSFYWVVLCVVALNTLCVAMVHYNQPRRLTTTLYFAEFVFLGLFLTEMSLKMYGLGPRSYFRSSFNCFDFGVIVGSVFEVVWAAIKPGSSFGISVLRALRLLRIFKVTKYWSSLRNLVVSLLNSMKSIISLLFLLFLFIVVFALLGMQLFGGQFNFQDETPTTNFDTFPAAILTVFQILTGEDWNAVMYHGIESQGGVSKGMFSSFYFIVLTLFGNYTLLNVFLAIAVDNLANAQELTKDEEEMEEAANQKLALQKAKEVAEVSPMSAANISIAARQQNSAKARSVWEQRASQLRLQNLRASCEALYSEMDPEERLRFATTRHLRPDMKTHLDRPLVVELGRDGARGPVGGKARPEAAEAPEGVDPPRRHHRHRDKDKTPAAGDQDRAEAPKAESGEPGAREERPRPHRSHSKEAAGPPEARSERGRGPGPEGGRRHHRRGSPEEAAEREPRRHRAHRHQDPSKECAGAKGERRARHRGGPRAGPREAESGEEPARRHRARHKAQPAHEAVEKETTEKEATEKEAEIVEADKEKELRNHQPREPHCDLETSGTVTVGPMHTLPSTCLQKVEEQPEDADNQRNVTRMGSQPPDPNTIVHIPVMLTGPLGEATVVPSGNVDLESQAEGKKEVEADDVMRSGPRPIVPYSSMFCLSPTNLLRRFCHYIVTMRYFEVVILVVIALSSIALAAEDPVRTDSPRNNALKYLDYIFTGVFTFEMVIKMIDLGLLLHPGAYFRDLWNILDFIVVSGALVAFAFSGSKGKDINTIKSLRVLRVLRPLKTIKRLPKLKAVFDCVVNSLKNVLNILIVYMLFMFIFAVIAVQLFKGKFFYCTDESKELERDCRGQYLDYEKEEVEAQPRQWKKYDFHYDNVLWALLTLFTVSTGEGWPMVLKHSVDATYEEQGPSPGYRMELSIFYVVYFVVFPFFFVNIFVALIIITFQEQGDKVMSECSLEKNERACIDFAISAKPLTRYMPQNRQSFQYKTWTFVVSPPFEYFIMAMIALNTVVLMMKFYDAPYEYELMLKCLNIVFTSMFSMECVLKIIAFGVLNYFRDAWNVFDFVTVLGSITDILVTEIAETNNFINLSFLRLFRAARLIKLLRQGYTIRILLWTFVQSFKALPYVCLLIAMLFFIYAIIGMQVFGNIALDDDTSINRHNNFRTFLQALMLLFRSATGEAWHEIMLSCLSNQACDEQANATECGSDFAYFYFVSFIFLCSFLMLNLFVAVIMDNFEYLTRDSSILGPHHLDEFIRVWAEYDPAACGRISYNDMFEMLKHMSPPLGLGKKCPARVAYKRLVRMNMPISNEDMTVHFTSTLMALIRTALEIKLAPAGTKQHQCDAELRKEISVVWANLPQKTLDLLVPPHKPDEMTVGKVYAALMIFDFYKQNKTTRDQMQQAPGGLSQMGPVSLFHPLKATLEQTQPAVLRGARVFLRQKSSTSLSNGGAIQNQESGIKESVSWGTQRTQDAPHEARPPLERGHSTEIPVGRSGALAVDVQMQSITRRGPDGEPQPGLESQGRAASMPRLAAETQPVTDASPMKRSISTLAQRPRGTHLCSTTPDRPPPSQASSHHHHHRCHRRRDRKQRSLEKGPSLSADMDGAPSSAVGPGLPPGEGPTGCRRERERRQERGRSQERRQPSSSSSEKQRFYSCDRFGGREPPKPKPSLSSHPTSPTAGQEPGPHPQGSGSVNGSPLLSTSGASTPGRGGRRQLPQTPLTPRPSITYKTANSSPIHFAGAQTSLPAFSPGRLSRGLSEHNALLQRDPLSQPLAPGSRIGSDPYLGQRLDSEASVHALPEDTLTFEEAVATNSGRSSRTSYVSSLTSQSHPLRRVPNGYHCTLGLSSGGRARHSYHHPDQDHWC", "T3 sequence (P54284 whole entry partner)": "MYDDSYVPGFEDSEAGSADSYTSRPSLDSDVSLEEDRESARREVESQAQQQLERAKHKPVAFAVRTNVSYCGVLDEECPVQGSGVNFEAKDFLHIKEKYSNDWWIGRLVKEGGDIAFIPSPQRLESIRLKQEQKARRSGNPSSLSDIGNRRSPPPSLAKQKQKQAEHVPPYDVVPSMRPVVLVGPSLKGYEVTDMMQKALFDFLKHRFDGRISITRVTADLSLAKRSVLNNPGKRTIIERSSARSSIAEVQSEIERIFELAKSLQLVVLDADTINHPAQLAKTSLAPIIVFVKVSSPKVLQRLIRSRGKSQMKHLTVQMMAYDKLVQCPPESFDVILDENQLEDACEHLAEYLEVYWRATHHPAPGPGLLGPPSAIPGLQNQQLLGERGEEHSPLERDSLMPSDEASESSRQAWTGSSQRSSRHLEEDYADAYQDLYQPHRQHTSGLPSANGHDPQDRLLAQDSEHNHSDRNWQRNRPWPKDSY", "T3 sequence (P54289 25-946 partner limits assumed)": "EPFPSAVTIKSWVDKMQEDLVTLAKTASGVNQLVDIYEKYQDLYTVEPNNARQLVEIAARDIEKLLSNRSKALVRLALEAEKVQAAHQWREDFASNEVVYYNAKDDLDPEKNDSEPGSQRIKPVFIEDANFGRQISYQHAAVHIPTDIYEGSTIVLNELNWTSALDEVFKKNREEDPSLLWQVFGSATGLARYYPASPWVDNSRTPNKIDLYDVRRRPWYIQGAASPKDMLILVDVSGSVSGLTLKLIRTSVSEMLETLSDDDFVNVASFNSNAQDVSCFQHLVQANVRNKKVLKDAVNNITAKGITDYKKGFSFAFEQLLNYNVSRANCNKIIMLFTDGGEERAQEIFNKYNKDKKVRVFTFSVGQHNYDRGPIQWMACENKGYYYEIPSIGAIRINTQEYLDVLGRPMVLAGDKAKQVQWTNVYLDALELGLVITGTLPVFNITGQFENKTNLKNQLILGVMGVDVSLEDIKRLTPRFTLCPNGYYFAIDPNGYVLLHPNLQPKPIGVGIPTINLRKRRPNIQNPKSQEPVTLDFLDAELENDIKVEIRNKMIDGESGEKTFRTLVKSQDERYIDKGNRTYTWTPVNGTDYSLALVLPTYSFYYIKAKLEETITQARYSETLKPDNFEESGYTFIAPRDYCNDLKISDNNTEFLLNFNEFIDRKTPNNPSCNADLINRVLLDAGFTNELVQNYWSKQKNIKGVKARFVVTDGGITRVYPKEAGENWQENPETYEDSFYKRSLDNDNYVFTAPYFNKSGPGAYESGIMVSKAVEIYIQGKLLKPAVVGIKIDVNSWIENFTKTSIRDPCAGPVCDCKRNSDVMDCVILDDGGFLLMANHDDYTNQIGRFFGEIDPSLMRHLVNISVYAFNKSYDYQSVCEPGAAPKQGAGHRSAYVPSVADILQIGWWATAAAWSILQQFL", "T3 sequence (P54289 947-1103 partner limits assumed)": "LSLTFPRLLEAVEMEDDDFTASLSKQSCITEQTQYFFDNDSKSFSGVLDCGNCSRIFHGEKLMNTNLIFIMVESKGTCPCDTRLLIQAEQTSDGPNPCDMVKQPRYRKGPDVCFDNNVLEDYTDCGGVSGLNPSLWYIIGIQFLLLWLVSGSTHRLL", "assay": "Channel activity in N-type calcium channel stable line", "assay_type": "cell-based", "protocol": "as §1, §2"}, "[6]": {"molecular_target": "T4, Kv2.1 delay rectifier voltage-gated potassium channel (Homo sapiens, UniProt Q14721)", "T4 construct": "expressed in transfected cells", "T4 sequence (Q14721 whole entry)": "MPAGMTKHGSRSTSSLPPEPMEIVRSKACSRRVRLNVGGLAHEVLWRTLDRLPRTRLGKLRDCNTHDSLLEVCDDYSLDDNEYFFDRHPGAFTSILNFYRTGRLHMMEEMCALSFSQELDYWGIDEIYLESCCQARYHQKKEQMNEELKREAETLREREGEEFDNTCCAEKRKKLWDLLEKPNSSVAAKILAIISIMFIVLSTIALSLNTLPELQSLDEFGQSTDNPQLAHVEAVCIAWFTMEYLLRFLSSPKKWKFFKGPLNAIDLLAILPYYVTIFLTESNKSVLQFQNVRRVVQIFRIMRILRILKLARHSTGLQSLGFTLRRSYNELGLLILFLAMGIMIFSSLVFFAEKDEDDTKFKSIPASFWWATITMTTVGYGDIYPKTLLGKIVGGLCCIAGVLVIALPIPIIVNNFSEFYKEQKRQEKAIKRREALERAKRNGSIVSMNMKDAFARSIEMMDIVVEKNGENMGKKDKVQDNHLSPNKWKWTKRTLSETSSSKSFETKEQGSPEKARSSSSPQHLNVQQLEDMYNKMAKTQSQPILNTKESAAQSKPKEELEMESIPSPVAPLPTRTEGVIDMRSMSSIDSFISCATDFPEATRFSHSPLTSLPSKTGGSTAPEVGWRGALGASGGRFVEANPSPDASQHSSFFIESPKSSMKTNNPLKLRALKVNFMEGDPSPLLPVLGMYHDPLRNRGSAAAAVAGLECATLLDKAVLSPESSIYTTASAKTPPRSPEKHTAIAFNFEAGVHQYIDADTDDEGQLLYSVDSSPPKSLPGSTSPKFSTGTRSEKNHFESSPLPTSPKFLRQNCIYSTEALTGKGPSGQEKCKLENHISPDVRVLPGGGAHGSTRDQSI", "assay": "Channel activity in Kv2.1 stable line", "assay_type": "cell-based", "protocol": "as §1, §2"}, "[7]": {"molecular_target": "KCNQ2 (Rattus norvegicus, UniProt O88943)", "assay": "Whole-cell voltage clamp of CHO cells expressing KCNQ2", "assay_type": "cell-based", "parameters": "expressed in transfected cells; host or cells: CHO cells", "protocol": "as §3, §4, §5"}, "[8]": {"molecular_target": "T5, KCNQ5 (Homo sapiens, UniProt Q9NR82)", "T5 construct": "expressed in transfected cells; host or cells: CHO cells", "assay": "Whole-cell voltage clamp of CHO cells expressing KCNQ5", "assay_type": "cell-based", "conditions": "10 μM ZnPy, extracellular", "protocol": "as §1, §2"}, "[9]": {"assay": "Rat model of severe global ischemia", "conditions": "in vivo"}}}
{"smiles": "S=c1ccccn1[O][Zn][O]n1ccccc1=S", "note": "[ZnPy, Zinc Pyrithione]", "values": [{"measurement": "anti-apoptotic effect in vitro", "setting": "[1]", "result": "protected lymphocytic leukemia cells against colchicine-induced apoptosis"}, {"measurement": "potentiation of channel activity", "setting": "[2]", "result": "did not potentiate"}, {"measurement": "hyperpolarizing shift of V1/2", "setting": "[3]; 10 μM ZnPy", "result": "24.4±0.8", "unit": "mV"}, {"measurement": "V1/2 in presence of compound", "setting": "[3]; 10 μM ZnPy, control −20.3±0.8 mV", "result": "−44.7±1.9", "unit": "mV"}, {"measurement": "activation time constant", "setting": "[3]; +50 mV, with ZnPy, control 75.6±4.9", "result": "157.8±23.5", "unit": "milliseconds"}, {"measurement": "Hill coefficient of dose dependent curve", "setting": "[3]; KCNQ2/3", "result": 1.4}, {"measurement": "EC50", "setting": "[3]; KCNQ2/3 heteromultimers, read-out: EC50 of midpoint of activation voltage (V1/2) shift", "result": "2400 ± 400", "unit": "nM"}, {"measurement": "deactivation time constant", "setting": "[3]; −120 mV, 10 μM ZnPy, control 12.4±0.7", "result": "41.9±6.4", "unit": "milliseconds"}, {"measurement": "potentiation of M-current amplitude", "setting": "[4]", "result": 1.9, "unit": "fold"}, {"measurement": "potentiation of channel activity", "setting": "[5]", "result": "did not potentiate"}, {"measurement": "potentiation of channel activity", "setting": "[6]", "result": "did not potentiate"}, {"measurement": "effect on membrane potential of CHO cells expressing KCNQ2", "setting": "[7]; 10 μM ZnPy", "result": "significant hyperpolarization"}, {"measurement": "left (hyperpolarizing) shift of V1/2", "setting": "[7]; 10 μM ZnPy", "result": "25.5±1.5", "unit": "mV"}, {"measurement": "effect on TEA-blocked KCNQ2 current", "setting": "[7]; 10 μM ZnPy extracellular in presence of 20 mM TEA", "result": "unable to reverse the TEA inhibition"}, {"measurement": "potentiation on intracellular application", "setting": "[7]; 10 μM ZnPy in pipette solution, with or without EGTA", "result": "induced no potentiation"}, {"measurement": "V1/2 on internal perfusion", "setting": "[7]; 10 μM ZnPy through recording pipette, 0 to 12 minutes", "result": "consistent and identical to that of KCNQ2 control"}, {"measurement": "effect on channel activity", "setting": "[7]; 10 μM ZnPy, extracellular", "result": "potentiated"}, {"measurement": "V1/2 (voltage required for half maximal activation) in presence of compound", "setting": "[7]; 10 μM ZnPy, control −18.9±0.6 mV", "result": "−44.4±0.9", "unit": "mV"}, {"measurement": "activation time constant", "setting": "[7]; +50 mV, with ZnPy, control 163.5±13.7", "result": "293.1±11.2", "unit": "milliseconds"}, {"measurement": "Hill coefficient of dose dependent curve", "setting": "[7]; KCNQ2", "result": 1.8}, {"measurement": "EC50", "setting": "[7]; KCNQ2 alone, read-out: EC50 of midpoint of activation voltage (V1/2) shift", "result": "1500 ± 300", "unit": "nM"}, {"measurement": "deactivation time constant", "setting": "[7]; −120 mV, 10 μM ZnPy, control 14.1±0.6", "result": "54.4±0.9", "unit": "milliseconds"}, {"measurement": "effect on channel activity", "setting": "[8]", "result": "became conductive upon ZnPy treatment"}, {"measurement": "neuroprotection", "setting": "[9]", "result": "protection against cell loss in the selectively vulnerable zone of the CA1 region of the hippocampus"}]}
